Publication PMC9428149, “Tackling recalcitrant Pseudomonas aeruginosa infections in critical illness via anti-virulence monotherapy” (Nature Communications, 2022)

Assays:
[1] = system: pyocyanin production in PA14; test: Pyocyanin production assay; settings: PA14; 50µM of each inhibitor (method says 10 μM); vs vehicle
[2] = system: pqsA promoter (PA14 PpqsA-GFPASV); test: pqsA-GFP reporter expression; type: cell-based, Pseudomonas aeruginosa; settings: PA14 PpqsA-GFPASV; 50µM per b210 (method b76 says 10 µM)
Procedure: The expression levels of pqsA, which is representative of the pqsABCDE operon transcription, were monitored in the presence of the MvfR inhibitors using PA14 cells containing the PpqsA-GFPASV, a reporter construct of the pqsA promoter fused to a short half-life GFP gene in, such that quantitative quenching of fluorescence corresponds to pqsA promoter repression[22],[32],[48]. […] GFP fluorescence levels were measured at λex = 485 nm/λem = 535 nm after 10 seconds of shaking every 15 min up to 12 h. The IC50 of PpqsA-GFP expression levels was performed as above using the same 13 different concentrations (0.0122–50 μM) for each of the 13 compounds tested.

[3] = system: MvfR-regulated small molecules in PA14; test: Production of HAQs, 2-AA, DHQ and AA in PA14 cultures (LC-MS); settings: PA14, 50µM inhibitor; for % Production AA: anthranilic acid, precursor control

| Compound | % Production Pyocyanin [1] | % Production pqsA-GFP [2] | % Production 2-AA [3] | % Production DHQ [3] | % Production HHQ [3] | % Production HQNO [3] | % Production PQS [3] | % Production AA [3] |
| --- | --- | --- | --- | --- | --- | --- | --- | --- |
| N#Cc1ccc(NC(=O)CC(=O)Nc2ccc(Oc3ccccc3)cc2)c(O)c1 [D63] | 6% | 7% | 5% | 4% | 0% | 4% | 4% | 68% |
| Cc1cc(F)ccc1NC(=O)Cc1ccc(C#N)cc1 [D40] | 115% | 96% | 113% | 85% | 102% | 109% | 100% | 81% |
| Cc1ccc(F)cc1NCC(=O)Nc1ccc(C#N)cc1 [D18] | 69% | 28% | – | – | – | – | – | – |
| N#Cc1ccc(NC(=O)CC(O)Cc2ccc(F)cc2)cc1 (centres unmarked) [D89] | 95% | – | – | – | – | – | – | – |
| CS(=O)(=O)Nc1ccc(NC(=O)CC(=O)Nc2ccc(C#N)cc2)cc1 [D55] | 100% | 131% | 95% | 80% | 130% | 98% | 115% | 117% |
| N#Cc1ccc(NC(=O)CC(=O)Cc2ccc(F)cc2)cc1 [D84] | 102% | – | – | – | – | – | – | – |
| Cc1cc(F)ccc1NCC(=O)Nc1cccc(Cl)c1 [D22] | 96% | 71% | – | – | – | – | – | – |
| Cc1cc(F)ccc1NC(=O)CC(=O)Nc1ccc(C#N)cc1 [D48] | 60% | 44% | 77% | 91% | 96% | 94% | 90% | 59% |
| COc1cccc(NC(=O)CNc2ccc(F)cc2C)c1 [D32] | 92% | 94% | – | – | – | – | – | – |
| N#Cc1ccc(NC(=O)CNc2ccccc2F)cc1 [D25] | 97% | 84% | – | – | – | – | – | – |
| Cc1cc(F)ccc1CCNC(=O)c1ccc(C#N)cc1 [D39] | 110% | 91% | 106% | 96% | 96% | 102% | 93% | 68% |
| N#Cc1ccc(NC(=O)CC(=O)c2ccc(F)cc2)cc1 [D76] | 77% | – | – | – | – | – | – | – |
| N#Cc1ccc(/C=C/C(=O)Nc2ccc(C#N)cc2)cc1 [D83] | 114% | – | – | – | – | – | – | – |
| Cc1cc(F)ccc1NCC(=O)Nc1cccc(C#N)c1 [D13] | 100% | 90% | – | – | – | – | – | – |
| Cc1cc(F)ccc1NCC(=O)Nc1ccc(N2CCOCC2)cc1 [D5] | 102% | 100% | – | – | – | – | – | – |
| N#Cc1ccc(NC(=O)CC(=O)Nc2ccc(I)cc2)cc1 [D56] | 13% | 6% | 72% | 136% | 63% | 69% | 62% | 180% |
| Cc1cc(F)ccc1NCC(=O)Nc1cc(F)ccc1F [D10] | 90% | 89% | – | – | – | – | – | – |
| N#Cc1ccc(NC(=O)CC(=O)Nc2cccc(F)c2)cc1 [D72] | 30% | – | – | – | – | – | – | – |
| Cc1cc(F)ccc1NCC(=O)Nc1cccc(C#N)c1 [G1] | 103% | 84% | 122% | – | 100% | 101% | 109% | – |
| Cc1cc(F)ccc1NCC(=O)Nc1ccc(C(F)(F)F)cc1 [G2] | 61% | 46% | 68% | 81% | 110% | 86% | 93% | – |
| Cc1ccc(NC(=O)CNc2ccc(F)cc2C)c(Br)c1 [D12] | 108% | 92% | – | – | – | – | – | – |
| CC(F)(C(=O)Nc1ccc(C#N)cc1)C(=O)Nc1ccc(C#N)cc1 [D94] | 52% | 85% | – | – | – | – | – | – |
| COc1ccc(NC(=O)CNc2ccc(F)cc2C)cc1 [D15] | 102% | 87% | – | – | – | – | – | – |
| Cc1cc(F)ccc1NCC(=O)Nc1ccc(Br)cc1C [D7] | 89% | 70% | – | – | – | – | – | – |
| N#Cc1ccc(NC(=O)CC(=O)Nc2ccc(C#N)nc2)cn1 [D91] | 43% | 39% | – | – | – | – | – | – |
| O=C(CC(=O)Nc1ccc(Oc2ccccc2)cc1)Nc1ccc(Cl)cc1 [D67] | 26% | 41% | 84% | 105% | 101% | 105% | 106% | 155% |
| N#Cc1ccc(NC(=O)CC(=O)Nc2ccc(Oc3ccccc3)cc2)c(N)c1 [D92] | 4% | 1% | – | – | – | – | – | – |

| Compound | % Production Pyocyanin [1] | % Production pqsA-GFP [2] | % Production 2-AA [3] | % Production DHQ [3] | % Production HHQ [3] | % Production HQNO [3] | % Production PQS [3] | % Production AA [3] |
| --- | --- | --- | --- | --- | --- | --- | --- | --- |
| Cc1ccc(NCC(=O)Nc2ccc(C#N)cc2)cc1F [D28] | 60% | 42% | – | – | – | – | – | – |
| Cc1ccc(NC(=O)CNc2ccc(F)cc2C)c(C)c1 [D21] | 113% | 87% | – | – | – | – | – | – |
| O=C(CC(=O)Nc1ccc(C(F)(F)F)cc1)Nc1ccc(Oc2ccccc2)cc1 [D98] | 42% | 29% | – | – | – | – | – | – |
| Cc1cc(F)ccc1NCC(=O)Nc1ccccc1C#N [G3] | 113% | 96% | 123% | – | 99% | 111% | 122% | – |
| Cc1cc(F)ccc1NCC(=O)Nc1ccccc1Br [D2] | 101% | 96% | – | – | – | – | – | – |
| Cc1cc(F)ccc1NCC(=O)Nc1ccc(C(=O)N(C)C)cc1 [D19] | 109% | 100% | – | – | – | – | – | – |
| N#Cc1ccc(NCC(=O)Nc2ccc(F)cc2)cc1 [D24] | 59% | 26% | – | – | – | – | – | – |
| Cc1cc(F)ccc1NCC(=O)Nc1ccc(N2CCCC2=O)cc1 [D9] | 107% | 105% | – | – | – | – | – | – |
| O=C(CC(=O)Nc1ccc(Oc2ccccc2)cc1)Nc1ccc(I)cc1 [D59] | 72% | 81% | 92% | 93% | 99% | 97% | 93% | 131% |
| N#Cc1ccc(NC(=O)CC(=O)Nc2ccc(F)cc2)cc1 [D36] | 16% | 10% | 37% | 68% | 57% | 59% | 47% | 187% |
| N#Cc1ccc(NC(=O)CC(=O)Nc2ccc(N)cc2)cc1 [D52] | 87% | 90% | 101% | 103% | 92% | 92% | 86% | 115% |
| O=C(CC(=O)Nc1ccc([N+](=O)[O-])cc1O)Nc1ccc(Oc2ccccc2)cc1 [D61] | 6% | 7% | 12% | 8% | 1% | 8% | 6% | 112% |
| Nc1cc([N+](=O)[O-])ccc1NC(=O)CC(=O)Nc1ccc(Oc2ccccc2)cc1 [D60] | 6% | – | – | – | – | – | – | – |
| N#Cc1ccc(NC(=O)CNc2cccc(F)c2)cc1 [D6] | 91% | 68% | – | – | – | – | – | – |
| CC(C)c1ccc(NCC(=O)Nc2ccc(C#N)cc2)cc1 [D33] | 59% | 53% | – | – | – | – | – | – |
| Cc1cc(NC(=O)CNc2ccc(F)cc2C)ccc1Br [D31] | 69% | 47% | – | – | – | – | – | – |
| N#Cc1ccc(NC(=O)C(F)(F)C(=O)Nc2ccc(C#N)cc2)cc1 [D97] | 94% | 95% | – | – | – | – | – | – |
| Cc1cc(F)ccc1NCC(=O)Nc1cccc([N+](=O)[O-])c1 [D14] | 85% | 77% | – | – | – | – | – | – |
| N#Cc1ccc(NC(=O)C(F)C(=O)Nc2ccc(C#N)cc2)cc1 [D96] | 34% | 42% | – | – | – | – | – | – |
| CCc1ccccc1NCC(=O)Nc1ccc(C#N)cc1 [D3] | 97% | 92% | – | – | – | – | – | – |
| N#Cc1ccc(NC(=O)C=CC(=O)Nc2ccc(F)cc2)cc1 [D86] | 88% | – | – | – | – | – | – | – |
| N#Cc1ccc(NC(=O)CC(=O)Nc2ccc(C#N)cn2)cc1 [D78] | 14% | – | – | – | – | – | – | – |
| N#Cc1ccc(NC(=O)CC(=O)Nc2cccc(C#N)c2)cc1 [D75] | 49% | – | – | – | – | – | – | – |
| N#Cc1ccc(NC(=O)CC(Nc2ccc(Oc3ccccc3)cc2)C(F)(F)F)cc1 (centres unmarked) [D93] | 91% | 88% | – | – | – | – | – | – |
| N#Cc1ccc(NC(=O)CNc2ccc(Cl)cc2)cc1 [D16] | 43% | 18% | – | – | – | – | – | – |
| CC(=O)c1ccccc1NC(=O)CNc1ccc(F)cc1C [D30] | 91% | 94% | – | – | – | – | – | – |
